Results reported in patent publication US9149038B2, “4-amino-6-(heterocyclic)picolinates and 6-amino-2-(heterocyclic)pyrimidine-4-carboxylates and their use as herbicides” (Dow AgroSciences LLC, priority 2013, dated 2015).
Where two headings read alike, the source gives them in different places.

Legend:
[1] = system: Key Broadleaf Weed and Crop Species; assay: Post-Emergent Test II: postemergent herbicidal activity, visual rating after 14 d (Table 7); type: in vivo; conditions: post-emergence, 336 h; for pest or weed control at 35 g/ha: 35 g ai/ha; for pest or weed control at 70 g/ha: 70 g ai/ha; for pest or weed control at 140 g/ha: 140 g ai/ha
Method in brief: (§1)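 Plants were raised in a greenhouse for 7-21 d and treated once at the first or second true leaf stage. Compounds, dissolved in 97:3 acetone:DMSO then diluted into an aqueous acetone/isopropanol/crop oil/Triton X-155 carrier, were applied by overhead track sprayer at 187 L/ha. After 14 d with subirrigation, injury was scored visually from 0 (none) to 100 (complete kill).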

[2] = system: Key Grass and Sedge Weeds as well as Grass Crops; assay: Post-Emergent Test II: postemergent herbicidal activity, visual rating after 14 d (Table 8); type: in vivo; conditions: post-emergence, 336 h; for pest or weed control at 35 g/ha: 35 g ai/ha; for pest or weed control at 70 g/ha: 70 g ai/ha; for pest or weed control at 140 g/ha: 140 g ai/ha
Method in brief: as §1

[3] = lambsquarters (Chenopodium album), read-out: Visual Growth Reduction (%) 14 Days After Application CHEAL
[4] = oilseed rape, canola (Brassica napus), read-out: Visual Growth Reduction (%) 14 Days After Application BRSNN
[5] = redroot pigweed (Amaranthus retroflexus), read-out: Visual Growth Reduction (%) 14 Days After Application AMARE
[6] = sunflower (Helianthus annuus), read-out: Visual Growth Reduction (%) 14 Days After Application HELAN
[7] = velvetleaf (Abutilon theophrasti), read-out: Visual Growth Reduction (%) 14 Days After Application ABUTH
[8] = wild poinsettia (Euphorbia heterophylla), read-out: Visual Growth Reduction (%) 14 Days After Application EPHHL
[9] = barnyardgrass (Echinochloa crus-galli), read-out: Visual Growth Reduction (%) 14 Days After Application ECHCG
[10] = giant foxtail (Setaria faberi), read-out: Visual Growth Reduction (%) 14 Days After Application SETFA
[11] = maize, corn (Zea mays), read-out: Visual Growth Reduction (%) 14 Days After Application ZEAMX
[12] = rice (Oryza sativa), read-out: Visual Growth Reduction (%) 14 Days After Application ORYSA
[13] = wheat, spring (Triticum aestivum), read-out: Visual Growth Reduction (%) 14 Days After Application TRZAS
[14] = yellow nutsedge (Cyperus esculentus), read-out: Visual Growth Reduction (%) 14 Days After Application CYPES

| SMILES | pest or weed control at 35 g/ha [1, 3] | pest or weed control at 70 g/ha [1, 3] | pest or weed control at 140 g/ha [1, 3] | pest or weed control at 35 g/ha [1, 4] | pest or weed control at 70 g/ha [1, 4] | pest or weed control at 140 g/ha [1, 4] | pest or weed control at 35 g/ha [1, 5] | pest or weed control at 70 g/ha [1, 5] | pest or weed control at 140 g/ha [1, 5] | pest or weed control at 35 g/ha [1, 6] | pest or weed control at 70 g/ha [1, 6] | pest or weed control at 140 g/ha [1, 6] | pest or weed control at 35 g/ha [1, 7] | pest or weed control at 70 g/ha [1, 7] | pest or weed control at 140 g/ha [1, 7] | pest or weed control at 35 g/ha [1, 8] | pest or weed control at 70 g/ha [1, 8] | pest or weed control at 140 g/ha [1, 8] | pest or weed control at 35 g/ha [2, 9] | pest or weed control at 70 g/ha [2, 9] | further results |
| --- | --- | --- | --- | --- | --- | --- | --- | --- | --- | --- | --- | --- | --- | --- | --- | --- | --- | --- | --- | --- | --- |
| COC(=O)c1nc(-c2ccc(Cl)c3c2OC(F)(F)O3)c(F)c(N)c1Cl [Compound 75] | 95 to 100% | 95 to 100% | 95 to 100% | 75 to 84% | 85 to 94% | 95 to 100% | 95 to 100% | 95 to 100% | 95 to 100% | 95 to 100% | 95 to 100% | 95 to 100% | 85 to 94% | 95 to 100% | 95 to 100% | 0 to 29% | 0 to 29% | 0 to 29% | 0 to 29% | 0 to 29% | pest or weed control at 140 g/ha [2, 9]: 0 to 29%; pest or weed control at 35 g/ha [2, 10]: 0 to 29%; pest or weed control at 70 g/ha [2, 10]: 0 to 29%; pest or weed control at 140 g/ha [2, 10]: 0 to 29%; pest or weed control at 35 g/ha [2, 11]: 95 to 100%; pest or weed control at 70 g/ha [2, 11]: 95 to 100%; pest or weed control at 140 g/ha [2, 11]: 95 to 100%; pest or weed control at 35 g/ha [2, 12]: 0 to 29%; pest or weed control at 70 g/ha [2, 12]: 0 to 29%; pest or weed control at 140 g/ha [2, 12]: 0 to 29%; pest or weed control at 35 g/ha [2, 13]: 0 to 29%; pest or weed control at 70 g/ha [2, 13]: 0 to 29%; pest or weed control at 140 g/ha [2, 13]: 0 to 29%; pest or weed control at 35 g/ha [2, 14]: 0 to 29%; pest or weed control at 70 g/ha [2, 14]: 0 to 29%; pest or weed control at 140 g/ha [2, 14]: 45 to 59% |
| COC(=O)c1nc(-c2cc3c(cc2F)OCO3)nc(N)c1OC [Compound 69] | 0 to 29% | 0 to 29% | 0 to 29% | 75 to 84% | 75 to 84% | 95 to 100% | 0 to 29% | 0 to 29% | 0 to 29% | 0 to 29% | 45 to 59% | 60 to 74% | 0 to 29% | 0 to 29% | 0 to 29% | 0 to 29% | 60 to 74% | 75 to 84% | 0 to 29% | 0 to 29% | pest or weed control at 140 g/ha [2, 9]: 0 to 29%; pest or weed control at 35 g/ha [2, 10]: 0 to 29%; pest or weed control at 70 g/ha [2, 10]: 0 to 29%; pest or weed control at 140 g/ha [2, 10]: 0 to 29%; pest or weed control at 35 g/ha [2, 11]: 0 to 29%; pest or weed control at 70 g/ha [2, 11]: 0 to 29%; pest or weed control at 140 g/ha [2, 11]: 0 to 29%; pest or weed control at 35 g/ha [2, 12]: 0 to 29%; pest or weed control at 70 g/ha [2, 12]: 0 to 29%; pest or weed control at 140 g/ha [2, 12]: 0 to 29%; pest or weed control at 35 g/ha [2, 13]: 0 to 29%; pest or weed control at 70 g/ha [2, 13]: 0 to 29%; pest or weed control at 140 g/ha [2, 13]: 0 to 29%; pest or weed control at 35 g/ha [2, 14]: 0 to 29%; pest or weed control at 70 g/ha [2, 14]: 0 to 29%; pest or weed control at 140 g/ha [2, 14]: 0 to 29% |
| COC(=O)c1nc(-c2ccc3c(c2)OC(F)(F)O3)nc(N)c1Cl [Compound 60] | 60 to 74% | 75 to 84% | 85 to 94% | 45 to 59% | 60 to 74% | 60 to 74% | 0 to 29% | 30 to 44% | 45 to 59% | 75 to 84% | 75 to 84% | 75 to 84% | 30 to 44% | 60 to 74% | 75 to 84% | 75 to 84% | 75 to 84% | 85 to 94% | 60 to 74% | 75 to 84% | pest or weed control at 140 g/ha [2, 9]: 85 to 94%; pest or weed control at 35 g/ha [2, 10]: 30 to 44%; pest or weed control at 70 g/ha [2, 10]: 60 to 74%; pest or weed control at 140 g/ha [2, 10]: 75 to 84%; pest or weed control at 35 g/ha [2, 11]: 60 to 74%; pest or weed control at 70 g/ha [2, 11]: 75 to 84%; pest or weed control at 140 g/ha [2, 11]: 85 to 94%; pest or weed control at 35 g/ha [2, 12]: 0 to 29%; pest or weed control at 70 g/ha [2, 12]: 0 to 29%; pest or weed control at 140 g/ha [2, 12]: 0 to 29%; pest or weed control at 35 g/ha [2, 13]: 45 to 59%; pest or weed control at 70 g/ha [2, 13]: 60 to 74%; pest or weed control at 140 g/ha [2, 13]: 60 to 74%; pest or weed control at 35 g/ha [2, 14]: 75 to 84%; pest or weed control at 70 g/ha [2, 14]: 85 to 94%; pest or weed control at 140 g/ha [2, 14]: 85 to 94% |
